Bridges are numbered along the chain shown (N, C = ends). [ ]: non-standard residue; d: D form. Pen = CC(C)(S)[C@H](N)C(=O)O; Nle = CCCC[C@H](N)C(=O)O; GABA = NCCCC(=O)O

Assay [1] addresses T1, hMC1-R (Homo sapiens, UniProt Q01726).
T1 construct: expressed in transfected cells; host or cells: CHO-K1 (membranes)
The assay is described as follows: Radioligand binding assay, [125I]-NDP-α-MSH competition, hMC1-R. As to conditions: CHO-K1 cell membranes. The method, then:
(§1) Radioligand Binding Assays
(§2) Cellular membranes used for the in vitro receptor binding assays were obtained from transgenic CHO-K1 cells stably expressing hMC-R receptor subtypes 1, 3, 4 or 5. […] The pellets were resuspended in the same buffer and centrifuged at 50,000 g for 10 minutes at approximately 4° C. The washed pellets containing the cellular membranes were stored at approximately −80° C.
(§3) Filters were washed three times with 50 mM Tris-HCl at pH 7.4 at a temperature of approximately 0-4° C. and then assayed for radioactivity using a Packard Topcount® scintillation counter. Binding data were analyzed by computer-assisted non-linear regression analysis (XL fit; IDBS).

Assay [2] concerns the target T2, hMC3-R (Homo sapiens, UniProt P41968).
T2 construct: expressed in transfected cells; host or cells: CHO-K1 (membranes)
The assay is described as follows: Radioligand binding assay, [125I]-NDP-α-MSH competition, hMC3-R. The note with it: CHO-K1 cell membranes. The method, then: as §1, §2, §3

In assay [3] the target is T3, hMC4-R (Homo sapiens, UniProt P32245).
T3 construct: expressed in transfected cells; host or cells: CHO-K1 (membranes)
T3 sequence (P32245 whole entry): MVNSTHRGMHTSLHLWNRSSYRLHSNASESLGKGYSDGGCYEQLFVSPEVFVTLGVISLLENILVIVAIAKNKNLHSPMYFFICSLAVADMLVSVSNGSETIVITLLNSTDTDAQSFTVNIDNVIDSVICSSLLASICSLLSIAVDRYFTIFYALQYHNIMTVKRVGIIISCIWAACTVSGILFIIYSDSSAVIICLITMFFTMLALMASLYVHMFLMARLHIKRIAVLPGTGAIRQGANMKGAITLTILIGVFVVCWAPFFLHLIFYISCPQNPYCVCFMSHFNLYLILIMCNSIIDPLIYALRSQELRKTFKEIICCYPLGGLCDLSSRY
Put plainly: Radioligand binding assay, [125I]-NDP-α-MSH competition, hMC4-R. As to conditions: CHO-K1 cell membranes. How it is done:
as §1, §2, §3

For assay [4], the target named is T4, hMC5-R (Homo sapiens, UniProt P33032).
T4 construct: expressed in transfected cells; host or cells: CHO-K1 (membranes)
T4 sequence (P33032 whole entry): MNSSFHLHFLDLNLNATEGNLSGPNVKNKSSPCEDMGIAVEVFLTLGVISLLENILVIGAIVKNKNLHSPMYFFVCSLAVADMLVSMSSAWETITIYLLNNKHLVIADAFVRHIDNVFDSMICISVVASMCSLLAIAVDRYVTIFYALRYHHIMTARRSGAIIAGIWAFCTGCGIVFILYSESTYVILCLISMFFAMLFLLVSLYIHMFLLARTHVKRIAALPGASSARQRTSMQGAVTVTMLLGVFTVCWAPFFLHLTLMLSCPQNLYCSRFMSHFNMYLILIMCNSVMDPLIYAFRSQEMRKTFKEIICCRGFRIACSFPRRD
The assay is described as follows: Radioligand binding assay, [125I]-NDP-α-MSH competition, hMC5-R. The note with it: CHO-K1 cell membranes. How it is done: as §1, §2, §3

For assay [5], the target named is T1, hMC1-R. Put plainly: cyclic AMP bioassay (ECL), CHO-K1 cells expressing hMC1-R. In kind it is cell-based. As to conditions: Table 3B, cAMP.
Experimental: (§4) Intracellular cyclic AMP (cAMP) levels were determined by an electrochemiluminescence (ECL) assay (Meso Scale Discovery®, Gaithersburg, Md.; referred to hereinafter as MSD). […] Transgenic CHO-K1 cells stably expressing hMC receptor subtypes 1, 3, 4 or 5 were dispensed at a density of approximately 7,000 cells/well in 384-well Multi-Array® plates (MSD) containing integrated carbon electrodes and coated with anti-cAMP antibody. Increasing concentrations of the test compounds were added and the cells were incubated for approximately 40 minutes at approximately 37° C. […] At the end of the second incubation period read buffer (Tris-buffered solution containing an ECL co-reactant and Triton X-100 at ph 7.8) was added and the cAMP levels in the cell lysates were immediately determined by ECL detection with a Sector Imager 6000 Reader® (MSD). Data were analyzed using a computer-assisted non-linear regression analysis (XL fit; IDBS) and reported as either an EC50 value or a Kb value.
The target of assay [6] is T2, hMC3-R. Put plainly: cyclic AMP bioassay (ECL), CHO-K1 cells expressing hMC3-R. The note with it: Table 3B, cAMP. It is filed as cell-based.
Experimental: as §4
Assay [7] concerns the target T3, hMC4-R. The assay is described as follows: cyclic AMP bioassay (ECL), CHO-K1 cells expressing hMC4-R. In kind it is cell-based. The note with it: Table 3B, cAMP.
Experimental: as §4
Assay [8] addresses T4, hMC5-R. Put plainly: cyclic AMP bioassay (ECL), CHO-K1 cells expressing hMC5-R. It is filed as cell-based. As to conditions: Table 3B, cAMP.
Experimental: as §4

T1 sequence (Q01726 whole entry): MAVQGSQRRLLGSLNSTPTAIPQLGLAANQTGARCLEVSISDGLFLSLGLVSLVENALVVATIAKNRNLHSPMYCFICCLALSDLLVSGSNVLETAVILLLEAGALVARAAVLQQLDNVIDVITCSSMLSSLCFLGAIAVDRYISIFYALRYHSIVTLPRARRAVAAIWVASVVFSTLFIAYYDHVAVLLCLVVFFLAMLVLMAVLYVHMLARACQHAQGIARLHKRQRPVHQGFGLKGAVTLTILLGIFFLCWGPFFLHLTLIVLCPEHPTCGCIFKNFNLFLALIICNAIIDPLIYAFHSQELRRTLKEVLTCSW
T2 sequence (P41968 whole entry): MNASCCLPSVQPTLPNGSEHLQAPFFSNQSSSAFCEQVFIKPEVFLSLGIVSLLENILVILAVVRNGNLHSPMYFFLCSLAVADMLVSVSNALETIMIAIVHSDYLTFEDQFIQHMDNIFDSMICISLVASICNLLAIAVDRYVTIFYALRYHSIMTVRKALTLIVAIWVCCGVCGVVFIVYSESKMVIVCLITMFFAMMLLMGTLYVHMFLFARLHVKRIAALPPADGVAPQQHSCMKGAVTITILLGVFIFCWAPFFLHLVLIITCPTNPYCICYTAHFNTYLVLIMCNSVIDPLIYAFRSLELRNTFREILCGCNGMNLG

Usually Ki stands for the equilibrium dissociation constant of an inhibitor or competing ligand from its target. The low end stands for tighter binding, the high end for weaker binding. As usually defined, the EC50 is the concentration at which the effect is half-maximal. Read a high EC50 as lower potency in that assay. Consider “Ac-[Nle]CH[dF]RW[GABA][Pen]-NH2 (disulfide 2-8)”, for which the Ki came to 0.12 nM in assay [1], 10 nM in assay [2], 0.43 nM in assay [3] and 0.42 nM in assay [4]. Besides, the EC50 in assay [5] worked out at 0.28 nM; in assay [6], 0.24 nM; in assay [7], 0.028 nM; in assay [8], 3.9 nM.

The values are drawn from patent US9458195B2, “Melanocortin receptor ligands” (Ipsen Pharma S.A.S., priority 2005, dated 2016).
